Assay results taken from patent US20240228973A9, “NON-ALCOHOLIC FATTY LIVER ARTIFICIAL TISSUE MODEL” (CELLARTGEN INC., priority 2021, published 2024).

Tests used:
[1] = test system: normal liver organoids; assay: Viability of normal liver organoids treated with the drug (cytotoxicity); type: cell-based, human
Method: Also, when the viability of the normal liver organoids treated with the drug was analyzed to evaluate the cytotoxicity depending on the concentration of the drug, it was confirmed that the viability was 80% or more at 1 μM, 70% at 10 μM, and about 60% at 100 μM (FIG. 15B). That is, it was confirmed that liver toxicity increased as the treatment concentration of OCA increased.
(§1) Also, when the viability of the normal liver organoids treated with the drug was analyzed to evaluate the cytotoxicity depending on the concentration of the drug, it was confirmed that the viability was 70% or more at 1 μM to 10 μM and about 50% at 100 μM (FIG. 16B).
as §1, with “not affected at a concentration of up to 1 μM, and it was 80%” for “70%”, “at” for “at 1 μM to”, “60%” for “50%”, “17B).” for “16B).”

[2] = test system: human tissue-derived non-alcoholic steatohepatitis (NASH) liver organoids; assay: Drug efficacy evaluation in human tissue-derived NASH liver organoids co-cultured with EC, KC and HSC in LEM-Chip; type: cell-based
Source text: (§2) Steatohepatitis (NASH) was induced in liver organoids in which a liver tissue microenvironment [vascular endothelial cells (E)+Kupffer cells (K)+hepatic stellate cells (S)] was constructed under culture conditions in which the decellularized liver tissue-derived LEM scaffold and the multiwell microfluidic device were combined, followed by treatment with obeticholic acid (OCA) at different concentrations. OCA (Obeticholic acid) is a semi-synthetic bile acid analogue that has conventionally been used to treat cholangitis and is a drug candidate whose efficacy has recently been verified in non-alcoholic steatohepatitis clinical trials. The NASH group was treated with 800 μM fatty acid for 3 days to induce a disease, and the NASH+OCA group was treated with 800 μM fatty acid and the corresponding drug for 3 days at different concentrations.
as §2, with “ezetimibe (Eze)” for “obeticholic acid (OCA)”, “Eze (Ezetimibe)” for “OCA (Obeticholic acid)”, “cholesterol absorption inhibitor and is a drug candidate” for “semi-synthetic bile acid analogue”, “hyperglycemic cholesterol” for “cholangitis”, “lipid abnormalities.” for “is a drug candidate whose efficacy has recently been verified in non-alcoholic steatohepatitis clinical trials.”, “NASH+Eze” for “NASH+OCA”
as §2, with “dapagliflozin (DAPA)” for “obeticholic acid (OCA)”, “DAPA (Dapagliflozin)” for “OCA (Obeticholic acid)”, “sodium-glucose transporter inhibitor and is a drug candidate” for “semi-synthetic bile acid analogue”, “diabetes.” for “cholangitis and is a drug candidate whose efficacy has recently been verified in non-alcoholic steatohepatitis clinical trials.”, “NASH+DAPA” for “NASH+OCA”

[3] = 800 μM fatty acid + drug for 3 days at different concentrations
[4] = drug concentration of 10 μM or more

Compound | viability of the normal liver organoids ([1]; 10 μM drug) | viability of the normal liver organoids ([1]; 100 μM drug) | viability of the normal liver organoids ([1]; concentration of up to 1 μM) | viability of the normal liver organoids ([1]; 1 μM drug) | liver toxicity ([1]; as the treatment concentration increased) | amount of fat accumulation [2, 3] | morphology and structure of the organoid [2, 3] | expression of the fibrosis marker, quantitative PCR [2, 4] | expression of the inflammation marker, quantitative PCR [2, 4] | expression of fibrosis-related marker (SMA), quantitative PCR ([2]; vs NASH group, 3 days) | expression of inflammation-related marker (TNFα), quantitative PCR ([2]; vs NASH group, 3 days) | viability of the normal liver organoids ([1]; 1 μM to 10 μM drug)
CCOc1ccc(Cc2cc([C@@H]3O[C@H](CO)[C@@H](O)[C@H](O)[C@H]3O)ccc2Cl)cc1 [DAPA, dapagliflozin] | ≥ 80% | about 60% | not affected |  |  |  |  |  |  |  |  | 
CC[C@H]1[C@@H](O)[C@@H]2[C@H](CC[C@]3(C)[C@@H]([C@H](C)CCC(=O)O)CC[C@@H]23)[C@@]2(C)CC[C@@H](O)C[C@@H]12 [OCA, obeticholic acid] | 70% | about 60% |  | ≥ 80% | increased |  |  |  |  |  |  | 
O=C1[C@H](CC[C@H](O)c2ccc(F)cc2)[C@@H](c2ccc(O)cc2)N1c1ccc(F)cc1 [Eze, ezetimibe] |  | about 50% |  |  |  | reduced as the concentration increased | recovered | decreased to a level similar to that in the normal organoid | decreased to a level similar to that in the normal organoid | decreased | decreased | ≥ 70%
